Reference: ChEMBL document CHEMBL1151160, “Challenges and rewards of research in marine natural products chemistry in Brazil” (J Nat Prod, 2004)
In brackets after ≈: the same amount, converted by molar mass.

Key:
Format in all cases: functional, cell-based
HCT-116 = assay: Cytotoxicity against human HCT116 cells
MCF7 [1] = assay: Inhibition of G2 check point in gamma-irradiated human MCF7 cells expressing mutant p53 after 16 hrs by flow cytometry; details: MCF7, light or radiation study
MCF7 [2] = assay: Cytotoxicity against human MCF7 cells after 16 hrs by Celltiter assay; details: MCF7, 16 h

Row | IC50 (MCF7 [1]) | SMILES | IC50 (HCT-116) | IC50 (MCF7 [2])
1 |  | CC(=O)OCC(C)CCC[C@@H](C)[C@H]1CC[C@H]2[C@@H]3C[C@@H](O)[C@@]4(O)C[C@@H](O[C@@H]5OC[C@@H](OC(C)=O)[C@@H](O)[C@@H]5O)CC[C@]4(C)[C@H]3CC[C@]12C (stereo not given in full) [RIISEIN B] | 2 µg/mL (≈ 3.06 µM) | 
2 | 1 µM | O=C1NC(=O)c2c1c1c3ccccc3[nH]c1n1cncc21 [ISOGRANULATIMIDE] |  | 40 µM
3 | 1 µM | O=C1NC(=O)c2c1c1[nH]cnc1c1[nH]c3ccccc3c21 [GRANULATIMIDE] |  | 
4 |  | CC(=O)OCC(C)CCC[C@@H](C)[C@H]1CC[C@H]2[C@@H]3C[C@@H](O)[C@@]4(O)C[C@@H](O[C@@H]5OC[C@@H](O)[C@@H](OC(C)=O)[C@@H]5O)CC[C@]4(C)[C@H]3CC[C@]12C (stereo not given in full) [RIISEIN A] | 2 µg/mL (≈ 3.06 µM) | 
